Measurements: PMC3179267 (Biochemistry, 2011)
Where a SMILES comes first, the peptide text is derived from it. Bridges are numbered along the chain shown (N, C = ends).

Tests used:
trypsin [1] = test: Protease susceptibility assay; assay type: in vitro ADME; details: 80 μM peptide, pH 8.2, room temperature, up to 60 min, analytical HPLC
trypsin [2] = details: cited from earlier work

| Compound | susceptibility to trypsin (trypsin [1]) | susceptibility to trypsin, literature (trypsin [2]) |
| --- | --- | --- |
| CC[C@H](C)[C@@H]1NC(=O)[C@H](CCC(=O)O)NC(=O)[C@@H]2CSSC[C@@H]3NC(=O)[C@H](Cc4ccc(O)cc4)NC(=O)[C@@H](NC(=O)[C@@H](NC(=O)[C@H](C)N)[C@@H](C)O)CSSC[C@@H](C(=O)N[C@@H](CCCNC(=N)N)C(=O)O)NC(=O)[C@H](CSSC[C@H](NC(=O)[C@H](CCCNC(=N)N)NC(=O)CNC(=O)[C@H]([C@@H](C)O)NC(=O)[C@H](CCCNC(=N)N)NC3=O)C(=O)N[C@@H](C)C(=O)N[C@@H]([C@@H](C)O)C(=O)N[C@@H](CCCNC(=N)N)C(=O)N[C@@H](CCC(=O)O)C(=O)N[C@@H](CO)C(=O)N[C@@H](CC(C)C)C(=O)N[C@@H](CO)C(=O)NCC(=O)N[C@@H](C(C)C)C(=O)N2)NC(=O)[C@H](CC(C)C)NC(=O)[C@H](CCCNC(=N)N)NC(=O)[C@H](Cc2ccc(O)cc2)NC(=O)[C@H](CC(C)C)NC(=O)[C@H](CCCNC(=N)N)NC(=O)CNC(=O)[C@H](CO)NC1=O [HD5ox] (H-ATCYCRTGRCATRESLSGVCEISGRLYRLCCR-OH; disulfide 3-31, 5-20, 10-30) | not accepted as a substrate | very poor substrate |
| CC[C@H](C)[C@H](NC(=O)[C@H](CCC(=O)O)NC(=O)[C@H](CS)NC(=O)[C@@H](NC(=O)CNC(=O)[C@H](CO)NC(=O)[C@H](CC(C)C)NC(=O)[C@H](CO)NC(=O)[C@H](CCC(=O)O)NC(=O)[C@H](CCCNC(=N)N)NC(=O)[C@@H](NC(=O)[C@H](C)NC(=O)[C@H](CS)NC(=O)[C@H](CCCNC(=N)N)NC(=O)CNC(=O)[C@@H](NC(=O)[C@H](CCCNC(=N)N)NC(=O)[C@H](CS)NC(=O)[C@H](Cc1ccc(O)cc1)NC(=O)[C@H](CS)NC(=O)[C@@H](NC(=O)[C@H](C)N)[C@@H](C)O)[C@@H](C)O)[C@@H](C)O)C(C)C)C(=O)N[C@@H](CO)C(=O)NCC(=O)N[C@@H](CCCNC(=N)N)C(=O)N[C@@H](CC(C)C)C(=O)N[C@@H](Cc1ccc(O)cc1)C(=O)N[C@@H](CCCNC(=N)N)C(=O)N[C@@H](CC(C)C)C(=O)N[C@@H](CS)C(=O)N[C@@H](CS)C(=O)N[C@@H](CCCNC(=N)N)C(=O)O [HD5red] (H-ATCYCRTGRCATRESLSGVCEISGRLYRLCCR-OH) | rapid proteolytic cleavage |  |
